# In ChEMBL document CHEMBL3751718, “Synthesis and biological evaluation of lipid-like 5-(2-hydroxyethyl)-4-methyl-1,3-thiazole derivatives as potential anticancer and antimicrobial agents” (Medchemcomm, 2015):
# Activity calls are given as the source filed them. No cut-off for these calls is given here.
# How the values were obtained:
# [1] = Cytotoxicity against human HT1080 cells assessed as cell viability at 6.25 to 50 ug/ml after 72 hrs by MTT assay; type: functional; settings: HT-1080, 72 h, read-out: LC50 (the source's name)
# Staphylococcus aureus [2] = assay: Antibacterial activity against Staphylococcus aureus MSCL 334 at 10 mg/ml after 24 hrs by agar dish diffusion method; type: functional; settings: for zone of inhibition at 10000 µg/mL: MSCL 334, 24 h, read-out: DIZ
# MG-22A [3] = assay: Cytotoxicity against mouse MG-22A cells assessed as cell viability at 6.25 to 50 ug/ml by crystal violet-based assay; type: functional; settings: read-out: LC50 (the source's name)
# Aspergillus niger [4] = assay: Fungicidal activity against Aspergillus niger MSCL 324 incubated for 24 hrs followed by colony transfer to agar plates for 24 hrs by colony counting based assay; type: functional; settings: MSCL 324, 24 h, read-out: MFC99.9
# Candida albicans [5] = assay: Antifungal activity against Candida albicans MSCL 378 after 24 hrs by broth dilution method; type: functional; settings: MSCL 378, 24 h
# Escherichia coli [6] = assay: Antibacterial activity against Escherichia coli MSCL 332 at 5 mg/ml after 24 hrs by agar dish diffusion method; type: functional; settings: for zone of inhibition at 5000 µg/mL: MSCL 332, 24 h, read-out: DIZ
# Pseudomonas aeruginosa [7] = assay: Antibacterial activity against Pseudomonas aeruginosa MSCL 331 at 10 mg/ml after 24 hrs by agar dish diffusion method; type: functional; settings: for zone of inhibition at 10000 µg/mL: MSCL 331, 24 h, read-out: DIZ
# [8] = Cytotoxicity against mouse NIH/3T3 cells assessed as cell viability at 6.25 to 50 ug/ml by neutral red-based assay; settings: nih3t3
# [9] = Cytotoxicity against human HT1080 cells assessed as cell viability at 6.25 to 50 ug/ml by crystal violet-based assay; type: functional; settings: HT-1080, read-out: LC50 (the source's name)
# Proteus mirabilis [10] = assay: Antibacterial activity against Proteus mirabilis MSCL 590 at 5 mg/ml after 24 hrs by agar dish diffusion method; type: functional; settings: for zone of inhibition at 5000 µg/mL: MSCL 590, 24 h, read-out: DIZ
# Candida albicans [11] = assay: Antifungal activity against Candida albicans MSCL 378 at 5 mg/ml after 48 hrs by agar dish diffusion method; type: functional; settings: for zone of inhibition at 5000 µg/mL: MSCL 378, 48 h, read-out: DIZ
# Aspergillus niger [12] = assay: Antifungal activity against Aspergillus niger MSCL 324 at 10 mg/ml after 48 hrs by agar dish diffusion method; type: functional; settings: for zone of inhibition at 10000 µg/mL: MSCL 324, 48 h, read-out: DIZ
# Aspergillus niger [13] = assay: Antifungal activity against Aspergillus niger MSCL 324 after 24 hrs by broth dilution method; type: functional; settings: MSCL 324, 24 h
# Candida albicans [14] = assay: Antifungal activity against Candida albicans MSCL 378 at 10 mg/ml after 48 hrs by agar dish diffusion method; type: functional; settings: for zone of inhibition at 10000 µg/mL: MSCL 378, 48 h, read-out: DIZ
# Bacillus cereus [15] = assay: Antibacterial activity against Bacillus cereus MSCL 330 at 5 mg/ml after 24 hrs by agar dish diffusion method; type: functional; settings: for zone of inhibition at 5000 µg/mL: MSCL 330, 24 h, read-out: DIZ
# Candida albicans [16] = assay: Fungicidal activity against Candida albicans MSCL 378 incubated for 24 hrs followed by colony transfer to agar plates for 24 hrs by colony counting based assay; type: functional; settings: MSCL 378, 24 h, read-out: MFC99.9
# Aspergillus niger [17] = assay: Antifungal activity against Aspergillus niger MSCL 324 at 5 mg/ml after 48 hrs by agar dish diffusion method; type: functional; settings: for zone of inhibition at 5000 µg/mL: MSCL 324, 48 h, read-out: DIZ
# Bacillus cereus [18] = assay: Antibacterial activity against Bacillus cereus MSCL 330 at 10 mg/ml after 24 hrs by agar dish diffusion method; type: functional; settings: for zone of inhibition at 10000 µg/mL: MSCL 330, 24 h, read-out: DIZ
# MG-22A [19] = assay: Induction of nitric oxide production in mouse MG-22A cells by Griess assay; type: functional; set-up: concentration or dose not given beside the values
# MG-22A [20] = assay: Cytotoxicity against mouse MG-22A cells assessed as cell viability at 6.25 to 50 ug/ml after 72 hrs by MTT assay; type: functional; settings: read-out: LC50 (the source's name)
# HT-1080 = assay: Induction of nitric oxide production in human HT1080 cells by Griess assay; type: functional; set-up: concentration or dose not given beside the values
# Pseudomonas aeruginosa [21] = assay: Antibacterial activity against Pseudomonas aeruginosa MSCL 331 at 5 mg/ml after 24 hrs by agar dish diffusion method; type: functional
# Escherichia coli [22] = assay: Antibacterial activity against Escherichia coli MSCL 332 at 10 mg/ml after 24 hrs by agar dish diffusion method; type: functional; settings: for zone of inhibition at 10000 µg/mL: MSCL 332, 24 h, read-out: DIZ
# Proteus mirabilis [23] = assay: Antibacterial activity against Proteus mirabilis MSCL 590 at 10 mg/ml after 24 hrs by agar dish diffusion method; type: functional; settings: for zone of inhibition at 10000 µg/mL: MSCL 590, 24 h, read-out: DIZ
# Staphylococcus aureus [24] = assay: Antibacterial activity against Staphylococcus aureus MSCL 334 at 5 mg/ml after 24 hrs by agar dish diffusion method; type: functional; settings: for zone of inhibition at 5000 µg/mL: MSCL 334, 24 h, read-out: DIZ
# Bacillus cereus [25] = assay: Bactericidal activity against Bacillus cereus MSCL 330 incubated for 24 hrs followed by colony transfer to agar plates for 24 hrs by colony counting based assay; type: functional; settings: MSCL 330, 24 h, read-out: MBC99.9
# Staphylococcus aureus [26] = assay: Bactericidal activity against Staphylococcus aureus MSCL 334 incubated for 24 hrs followed by colony transfer to agar plates for 24 hrs by colony counting based assay; type: functional; settings: MSCL 334, 24 h, read-out: MBC99.9
# Staphylococcus aureus [27] = assay: Antibacterial activity against Staphylococcus aureus MSCL 334 after 24 hrs by broth dilution method; type: functional; settings: MSCL 334, 24 h
# Bacillus cereus [28] = assay: Antibacterial activity against Bacillus cereus MSCL 330 after 24 hrs by broth dilution method; type: functional; settings: MSCL 330, 24 h
# Escherichia coli [29] = assay: Antibacterial activity against Escherichia coli MSCL 332 after 24 hrs by broth dilution method; type: functional; settings: MSCL 332, 24 h
# Escherichia coli [30] = assay: Bactericidal activity against Escherichia coli MSCL 332 incubated for 24 hrs followed by colony transfer to agar plates for 24 hrs by colony counting based assay; type: functional; settings: MSCL 332, 24 h, read-out: MBC99.9
Molecule,CC50 [1],CC50 (MG-22A [3]),MFC (Aspergillus niger [4]) [µg/mL],MIC (Candida albicans [5]) [µg/mL],diameter of the inhibition zone (DIZ) (Escherichia coli [6]),LC50 [8],CC50 [9],zone of inhibition at 5000 µg/mL (Candida albicans [11]) [mm],zone of inhibition at 10000 µg/mL (Aspergillus niger [12]) [mm],MIC (Aspergillus niger [13]) [µg/mL],zone of inhibition at 10000 µg/mL (Candida albicans [14]) [mm],MFC (Candida albicans [16]) [µg/mL],Activity (MG-22A [19]) [%],CC50 (MG-22A [20]),Activity (HT-1080) [%],diameter of the inhibition zone (DIZ) (Pseudomonas aeruginosa [21]),zone of inhibition at 10000 µg/mL (Staphylococcus aureus [2]) [mm],zone of inhibition at 5000 µg/mL (Bacillus cereus [15]) [mm],zone of inhibition at 5000 µg/mL (Aspergillus niger [17]) [mm],zone of inhibition at 10000 µg/mL (Bacillus cereus [18]) [mm],also measured
CCCCCCCCCCCCCCCCCCOCCc1scnc1C,> 100 µg/mL,> 100 µg/mL,> 256,> 256,inactive,528 µg/mL,> 100 µg/mL,10,11,> 256,14,> 256,5,> 100 µg/mL,4,inactive,,,,,diameter of the inhibition zone (DIZ) (Staphylococcus aureus [2]): inactive; diameter of the inhibition zone (DIZ) (Pseudomonas aeruginosa [7]): inactive; diameter of the inhibition zone (DIZ) (Proteus mirabilis [10]): inactive; diameter of the inhibition zone (DIZ) (Bacillus cereus [15]): inactive; diameter of the inhibition zone (DIZ) (Aspergillus niger [17]): inactive; diameter of the inhibition zone (DIZ) (Bacillus cereus [18]): inactive; diameter of the inhibition zone (DIZ) (Escherichia coli [22]): inactive; diameter of the inhibition zone (DIZ) (Proteus mirabilis [23]): inactive; diameter of the inhibition zone (DIZ) (Staphylococcus aureus [24]): inactive
CCCCCCCOCCc1scnc1C,70.5 µM,37.3 µM,256,64,inactive,224 µM,62.2 µM,13,15,16,13,128,200,49.7 µM,200,inactive,15,12,15,12,MBC (Bacillus cereus [25]): > 256 µg/mL; MBC (Staphylococcus aureus [26]): 64 µg/mL; diameter of the inhibition zone (DIZ) (Pseudomonas aeruginosa [7]): inactive; diameter of the inhibition zone (DIZ) (Proteus mirabilis [10]): inactive; MIC (Staphylococcus aureus [27]): 16 µg/mL; MIC (Bacillus cereus [28]): 64 µg/mL; diameter of the inhibition zone (DIZ) (Escherichia coli [22]): inactive; diameter of the inhibition zone (DIZ) (Proteus mirabilis [23]): inactive; zone of inhibition at 5000 µg/mL (Staphylococcus aureus [24]): 11 mm
CCCCCCCCCCOCCc1sc[n+](C)c1C.[I-],0.94 µM,0.23 µM,32,16,,37.6 µM,0.47 µM,29,15,16,33,32,150,1.17 µM,150,,25,29,12,30,"MBC (Bacillus cereus [25]): 64 µg/mL; MBC (Staphylococcus aureus [26]): 4 µg/mL; zone of inhibition at 5000 µg/mL (Escherichia coli [6]): 15 mm; zone of inhibition at 10000 µg/mL (Pseudomonas aeruginosa [7]): 15 mm; zone of inhibition at 5000 µg/mL (Proteus mirabilis [10]): 17 mm; MIC (Escherichia coli [29]): 32 µg/mL; MIC (Staphylococcus aureus [27]): 2 µg/mL; MBC (Escherichia coli [30]): 32 µg/mL; zone of inhibition at 5000 µg/mL (Pseudomonas aeruginosa [21]; MSCL 331, 24 h, read-out: DIZ): 9 mm; MIC (Bacillus cereus [28]): 32 µg/mL; zone of inhibition at 10000 µg/mL (Escherichia coli [22]): 20 mm; zone of inhibition at 10000 µg/mL (Proteus mirabilis [23]): 20 mm; zone of inhibition at 5000 µg/mL (Staphylococcus aureus [24]): 25 mm"
CCCCCCCCCCCOCCc1scnc1C,50.5 µM,47.1 µM,,,,47.1 µM,53.8 µM,14,15,,15,,100,53.8 µM,100,inactive,13,10,9,11,zone of inhibition at 5000 µg/mL (Escherichia coli [6]): 9 mm; zone of inhibition at 10000 µg/mL (Pseudomonas aeruginosa [7]): 10 mm; zone of inhibition at 5000 µg/mL (Proteus mirabilis [10]): 8 mm; zone of inhibition at 10000 µg/mL (Escherichia coli [22]): 10 mm; zone of inhibition at 10000 µg/mL (Proteus mirabilis [23]): 10 mm; zone of inhibition at 5000 µg/mL (Staphylococcus aureus [24]): 10 mm
CCCCCCCCCCOCCc1scnc1C,63.6 µM,38.8 µM,64,> 256,inactive,84.8 µM,60 µM,13,11,32,9,> 256,200,45.9 µM,400,inactive,10,9,11,10,MBC (Bacillus cereus [25]): > 256 µg/mL; diameter of the inhibition zone (DIZ) (Pseudomonas aeruginosa [7]): inactive; diameter of the inhibition zone (DIZ) (Proteus mirabilis [10]): inactive; MIC (Bacillus cereus [28]): 2 µg/mL; diameter of the inhibition zone (DIZ) (Escherichia coli [22]): inactive; diameter of the inhibition zone (DIZ) (Proteus mirabilis [23]): inactive; diameter of the inhibition zone (DIZ) (Staphylococcus aureus [24]): inactive
GENTAMICIN,,,,,,,,,,,,,,,,,,,,,inhibition zone (IZ) (Staphylococcus aureus [2]): 32 mm; inhibition zone (IZ) (Escherichia coli [6]): 27 mm; inhibition zone (IZ) (Pseudomonas aeruginosa [7]): 32 mm; inhibition zone (IZ) (Proteus mirabilis [10]): 28 mm; diameter of the inhibition zone (DIZ) (Candida albicans [11]): inactive; diameter of the inhibition zone (DIZ) (Aspergillus niger [12]): inactive; diameter of the inhibition zone (DIZ) (Candida albicans [14]): inactive; inhibition zone (IZ) (Bacillus cereus [15]): 35 mm; diameter of the inhibition zone (DIZ) (Aspergillus niger [17]): inactive; inhibition zone (IZ) (Bacillus cereus [18]): 36 mm; inhibition zone (IZ) (Pseudomonas aeruginosa [21]): 31 mm; inhibition zone (IZ) (Escherichia coli [22]): 30 mm; inhibition zone (IZ) (Proteus mirabilis [23]): 31 mm; inhibition zone (IZ) (Staphylococcus aureus [24]): 30 mm
